Measured values from patent publication US20240166635A1, “AMINOHETEROARYL KINASE INHIBITORS” (Anrui Biomedical Technology (Guangzhou) Co.,Ltd., priority 2020, published 2024).

Assays:
Type in all cases: biochemical
CDK2/CyclinE1 = CDK2/CyclinE1 (Homo sapiens (Human), UniProt P24941); experiment: CDK2/CyclinE1 kinase inhibitory activity (Caliper mobility shift); details: read-out: CDK2/Cyclin El IC50
CDK7/CyclinH/MAT1 = CDK7/CyclinH/MAT1 (Homo sapiens (Human), UniProt P50613); experiment: CDK7/CyclinH/MAT1 kinase inhibitory activity (Caliper mobility shift)
Sequence of CDK7/CyclinH/MAT1 (P50613 whole entry): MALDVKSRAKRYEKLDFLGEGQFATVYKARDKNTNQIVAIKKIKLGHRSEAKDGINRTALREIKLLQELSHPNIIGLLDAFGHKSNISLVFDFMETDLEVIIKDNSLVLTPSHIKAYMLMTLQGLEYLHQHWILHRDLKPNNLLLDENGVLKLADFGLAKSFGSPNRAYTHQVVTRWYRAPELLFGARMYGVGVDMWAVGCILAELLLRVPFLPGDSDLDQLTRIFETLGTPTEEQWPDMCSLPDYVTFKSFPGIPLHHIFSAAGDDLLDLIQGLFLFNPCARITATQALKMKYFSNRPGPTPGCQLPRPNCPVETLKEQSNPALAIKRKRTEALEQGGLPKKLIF
Sequence of CDK7/CyclinH/MAT1 (P51946 whole entry partner): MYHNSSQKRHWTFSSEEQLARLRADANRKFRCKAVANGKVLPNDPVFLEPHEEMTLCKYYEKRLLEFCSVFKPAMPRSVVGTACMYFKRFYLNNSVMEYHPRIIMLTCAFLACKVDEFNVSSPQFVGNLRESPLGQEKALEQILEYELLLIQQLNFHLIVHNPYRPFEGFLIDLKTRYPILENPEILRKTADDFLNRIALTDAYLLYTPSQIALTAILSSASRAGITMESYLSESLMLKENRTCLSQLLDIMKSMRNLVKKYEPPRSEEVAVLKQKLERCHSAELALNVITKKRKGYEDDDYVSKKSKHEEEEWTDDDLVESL
Sequence of CDK7/CyclinH/MAT1 (P51948 whole entry partner): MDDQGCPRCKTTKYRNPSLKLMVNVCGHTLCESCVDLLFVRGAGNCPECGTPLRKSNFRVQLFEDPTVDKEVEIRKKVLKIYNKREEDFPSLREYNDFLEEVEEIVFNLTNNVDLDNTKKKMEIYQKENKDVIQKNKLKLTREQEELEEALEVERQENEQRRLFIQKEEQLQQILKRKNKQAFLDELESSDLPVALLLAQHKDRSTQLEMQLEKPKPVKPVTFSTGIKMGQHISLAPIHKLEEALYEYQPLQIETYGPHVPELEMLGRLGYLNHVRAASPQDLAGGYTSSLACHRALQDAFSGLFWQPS

CDK6/CyclinD1 = CDK6/CyclinD1 (Homo sapiens (Human), UniProt Q00534); experiment: CDK6/CyclinD1 kinase inhibitory activity (Caliper mobility shift); details: read-out: CDK6/Cyclin D1 IC50
Sequence of CDK6/CyclinD1 (Q00534 whole entry): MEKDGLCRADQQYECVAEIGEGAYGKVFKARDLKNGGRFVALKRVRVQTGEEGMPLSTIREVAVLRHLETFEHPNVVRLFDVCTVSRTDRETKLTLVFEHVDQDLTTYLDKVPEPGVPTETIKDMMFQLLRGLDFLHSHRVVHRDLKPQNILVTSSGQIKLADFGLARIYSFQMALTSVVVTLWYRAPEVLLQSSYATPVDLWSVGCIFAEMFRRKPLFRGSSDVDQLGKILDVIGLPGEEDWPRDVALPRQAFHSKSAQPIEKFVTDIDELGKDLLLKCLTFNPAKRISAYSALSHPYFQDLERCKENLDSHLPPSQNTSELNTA
Sequence of CDK6/CyclinD1 (P24385 whole entry partner): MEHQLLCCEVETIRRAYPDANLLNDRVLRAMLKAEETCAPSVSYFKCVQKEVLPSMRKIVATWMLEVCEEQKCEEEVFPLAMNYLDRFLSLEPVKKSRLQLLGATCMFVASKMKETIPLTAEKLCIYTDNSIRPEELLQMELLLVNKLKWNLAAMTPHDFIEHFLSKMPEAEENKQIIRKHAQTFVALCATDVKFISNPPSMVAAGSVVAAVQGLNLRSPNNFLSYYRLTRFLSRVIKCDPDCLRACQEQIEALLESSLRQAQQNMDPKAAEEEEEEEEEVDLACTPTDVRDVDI

CDK9/CyclinT1 = CDK9/CyclinT1 (Homo sapiens (Human), UniProt P50750); experiment: CDK9/CyclinT1 kinase inhibitory activity (Caliper mobility shift); details: read-out: CDK9/Cyclin T1 IC50
Sequence of CDK9/CyclinT1 (P50750 whole entry): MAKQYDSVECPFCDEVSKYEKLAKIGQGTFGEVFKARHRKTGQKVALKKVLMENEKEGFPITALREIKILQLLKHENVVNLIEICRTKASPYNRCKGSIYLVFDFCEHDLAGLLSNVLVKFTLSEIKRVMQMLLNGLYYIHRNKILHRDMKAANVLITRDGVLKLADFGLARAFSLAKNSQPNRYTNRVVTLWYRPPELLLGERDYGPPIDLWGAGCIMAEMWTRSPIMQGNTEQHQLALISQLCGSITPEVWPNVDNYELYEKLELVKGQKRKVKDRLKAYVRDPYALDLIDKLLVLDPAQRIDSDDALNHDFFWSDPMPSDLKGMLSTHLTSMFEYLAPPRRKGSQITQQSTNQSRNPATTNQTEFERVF
Sequence of CDK9/CyclinT1 (O60563 whole entry partner): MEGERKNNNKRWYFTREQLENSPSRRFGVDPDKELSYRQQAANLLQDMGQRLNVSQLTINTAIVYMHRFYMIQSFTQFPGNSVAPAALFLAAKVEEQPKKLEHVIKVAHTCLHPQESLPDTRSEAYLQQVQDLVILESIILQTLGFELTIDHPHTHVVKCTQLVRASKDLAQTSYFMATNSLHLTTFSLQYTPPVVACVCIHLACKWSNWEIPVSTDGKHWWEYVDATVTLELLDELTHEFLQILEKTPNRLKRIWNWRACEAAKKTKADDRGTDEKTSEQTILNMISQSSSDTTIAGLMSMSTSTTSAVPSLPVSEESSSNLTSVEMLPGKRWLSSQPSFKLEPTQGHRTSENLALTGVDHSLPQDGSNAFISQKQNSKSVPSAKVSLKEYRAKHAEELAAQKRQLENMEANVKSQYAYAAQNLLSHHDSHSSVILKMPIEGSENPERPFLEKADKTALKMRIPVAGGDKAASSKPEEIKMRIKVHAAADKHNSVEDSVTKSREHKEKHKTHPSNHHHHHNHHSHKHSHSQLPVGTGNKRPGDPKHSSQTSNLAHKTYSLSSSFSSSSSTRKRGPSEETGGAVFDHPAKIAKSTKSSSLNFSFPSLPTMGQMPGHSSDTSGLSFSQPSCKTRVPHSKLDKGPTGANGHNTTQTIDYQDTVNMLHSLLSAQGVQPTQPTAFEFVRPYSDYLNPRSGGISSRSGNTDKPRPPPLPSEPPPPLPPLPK

CDK1/CyclinB = CDK1/CyclinB (Homo sapiens (Human), UniProt P06493); experiment: CDK1/CyclinB kinase inhibitory activity (Caliper mobility shift); details: read-out: CDK1/Cyclin B1 IC50
Sequence of CDK1/CyclinB (P06493 whole entry): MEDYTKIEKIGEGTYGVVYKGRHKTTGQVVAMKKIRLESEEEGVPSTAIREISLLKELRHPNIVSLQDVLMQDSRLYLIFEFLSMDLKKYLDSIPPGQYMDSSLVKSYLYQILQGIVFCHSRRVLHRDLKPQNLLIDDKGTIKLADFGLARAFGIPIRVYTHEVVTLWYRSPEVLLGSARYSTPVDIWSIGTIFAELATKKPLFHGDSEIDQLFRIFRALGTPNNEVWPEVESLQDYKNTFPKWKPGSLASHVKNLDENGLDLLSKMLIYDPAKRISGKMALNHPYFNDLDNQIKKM
Sequence of CDK1/CyclinB (P14635 whole entry partner): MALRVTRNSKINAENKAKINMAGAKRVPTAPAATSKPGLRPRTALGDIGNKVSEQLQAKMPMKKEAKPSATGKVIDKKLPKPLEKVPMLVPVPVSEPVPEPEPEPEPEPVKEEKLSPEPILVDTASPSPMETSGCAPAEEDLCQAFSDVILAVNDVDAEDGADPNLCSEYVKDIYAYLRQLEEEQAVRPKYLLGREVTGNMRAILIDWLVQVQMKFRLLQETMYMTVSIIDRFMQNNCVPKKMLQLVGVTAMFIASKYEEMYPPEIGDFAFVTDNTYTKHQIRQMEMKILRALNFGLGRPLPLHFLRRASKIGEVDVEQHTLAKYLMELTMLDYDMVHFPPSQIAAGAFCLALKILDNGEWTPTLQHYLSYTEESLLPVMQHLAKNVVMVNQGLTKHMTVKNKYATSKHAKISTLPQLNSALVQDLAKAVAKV

Compound	IC50 (CDK2/CyclinE1)	IC50 (CDK7/CyclinH/MAT1)	IC50 (CDK6/CyclinD1)	IC50 (CDK9/CyclinT1)	IC50 (CDK1/CyclinB)
N#Cc1cnc(Nc2ccc(S(=O)(=O)NC3COC3)cc2)nc1N1CCCCC1 [Example 66, 4-((5-cyano-4-(piperidin-1-yl)pyrimidin-2-yl)amino)-N-(oxetan-3-yl)benzenesulfonamide]	< 10 nM	≥ 1000 nM	100 to 1000 nM	100 to 1000 nM	10 to 100 nM
CS(=O)(=O)N1CCC(Nc2ncc(C#N)c(N3CCCCC3)n2)CC1 [Example 89]	10 to 100 nM	≥ 1000 nM		≥ 1000 nM	100 to 1000 nM
NS(=O)(=O)c1ccc(Nc2ncc(C(F)(F)F)c(OC3COCCC3O)n2)cc1 (single isomer, unassigned) [Example 115a]	< 10 nM	10 to 100 nM			10 to 100 nM
CS(=O)(=O)N1CCC(Nc2ncc(C(F)(F)F)c(OC3CCCCCC3O)n2)CC1 (single isomer, unassigned) [Example 121a]	< 10 nM	10 to 100 nM		100 to 1000 nM	10 to 100 nM
CC1(COc2nc(Nc3ccc(S(N)(=O)=O)cc3)ncc2C#N)CCCCC1 [Example 14]	10 to 100 nM	≥ 1000 nM	≥ 1000 nM	100 to 1000 nM	100 to 1000 nM
NS(=O)(=O)c1ccc(Nc2ncc(C(F)(F)F)c(OC3CCCCCC3O)n2)cc1 (single isomer, unassigned) [Example 118a]	< 10 nM	100 to 1000 nM		< 10 nM	< 10 nM
N#Cc1cnc(Nc2ccc(S(N)(=O)=O)cc2)nc1OCC1(CO)CCCCC1 [Example 17]	< 10 nM	≥ 1000 nM	100 to 1000 nM	100 to 1000 nM	10 to 100 nM
C[C@@H]1CCCN(c2nc(Nc3ccc(S(N)(=O)=O)cc3)ncc2C#N)C1 [Example 72]	10 to 100 nM	≥ 1000 nM	100 to 1000 nM	100 to 1000 nM	100 to 1000 nM
C[C@H]1CCCCN1c1nc(Nc2ccc(S(N)(=O)=O)cc2)ncc1C#N [Example 74]	< 10 nM	≥ 1000 nM	100 to 1000 nM	100 to 1000 nM	10 to 100 nM
N#Cc1cnc(Nc2ccc(S(N)(=O)=O)cc2)nc1N1CCC[C@@H](O)C1 [Example 70]	10 to 100 nM	≥ 1000 nM		100 to 1000 nM	100 to 1000 nM
N#Cc1cnc(Nc2ccc(S(N)(=O)=O)cc2)nc1N1CCCC(c2ccccc2)C1 (single isomer, unassigned) [Example 85]	< 10 nM	100 to 1000 nM	100 to 1000 nM	100 to 1000 nM	10 to 100 nM
[2H]C([2H])([2H])NS(=O)(=O)c1ccc(Nc2ncc(C(F)(F)F)c(OC3CCOCCC3O)n2)cc1 (single isomer, unassigned) [Example 102b, 4-((4-((5-hydroxyoxepan-4-yl)oxy)-5-(trifluoromethyl)pyrimidin-2-yl)amino)-N-(methyl-d3)benzenesulfonamide]		100 to 1000 nM	100 to 1000 nM		10 to 100 nM
C[C@@H]1CCCCN1c1nc(Nc2ccc(S(N)(=O)=O)cc2)ncc1C#N [Example 73]	< 10 nM	100 to 1000 nM	100 to 1000 nM	100 to 1000 nM	10 to 100 nM
NS(=O)(=O)c1ccc(Nc2ncc(F)c(N3CCCCC3)n2)cc1 [Example 86]	10 to 100 nM	≥ 1000 nM	≥ 1000 nM	10 to 100 nM	10 to 100 nM
N#Cc1cnc(Nc2ccc(S(N)(=O)=O)cc2)nc1-c1ccccc1 [Example 93]	10 to 100 nM	≥ 1000 nM	≥ 1000 nM	100 to 1000 nM	100 to 1000 nM
CNS(=O)(=O)c1ccc(Nc2ncc(C(F)(F)F)c(O[C@H]3CCCOC[C@H]3O)n2)cc1 (single isomer, unassigned) [Example 103b, cis-4-((4-((3-hydroxyoxepan-4-yl)oxy)-5-(trifluoromethyl)pyrimidin-2-yl)amino)-N-(methyl-d3)benzenesulfonamide]	< 10 nM		100 to 1000 nM		
N#Cc1cnc(Nc2ccc(S(N)(=O)=O)cc2)nc1-c1ccc(O)cc1 [Example 92, 4-((5-cyano-4-(4-hydroxyphenyl)pyrimidin-2-yl)amino)benzenesulfonamide]	< 10 nM	≥ 1000 nM	100 to 1000 nM	100 to 1000 nM	10 to 100 nM
C[C@H]1CCCN(c2nc(Nc3ccc(S(N)(=O)=O)cc3)ncc2C#N)C1 [Example 71]	< 10 nM	≥ 1000 nM	100 to 1000 nM	10 to 100 nM	10 to 100 nM
CC1(C)CCCN(c2nc(Nc3ccc(S(N)(=O)=O)cc3)ncc2C#N)C1 [Example 83]	< 10 nM	≥ 1000 nM	100 to 1000 nM	10 to 100 nM	10 to 100 nM
N#Cc1cnc(Nc2ccc(S(N)(=O)=O)cc2)nc1OCC1CCCC1 [Example 1, 4-((5-cyano-4-(cyclopentylmethoxy)pyrimidin-2-yl)amino)benzenesulfonamide]	10 to 100 nM	≥ 1000 nM	≥ 1000 nM	10 to 100 nM	10 to 100 nM

Compound	IC50 (CDK2/CyclinE1)	IC50 (CDK7/CyclinH/MAT1)	IC50 (CDK6/CyclinD1)	IC50 (CDK9/CyclinT1)	IC50 (CDK1/CyclinB)
CCc1cnc(Nc2ccc(S(N)(=O)=O)cc2)nc1O[C@@H]1CCC[C@@H]1O (single isomer, unassigned) [Example 133b, cis-4-((5-ethyl-4-((2-hydroxycyclopentyl)oxy)pyrimidin-2-yl)amino)benzenesulfonamide]	< 10 nM			100 to 1000 nM	100 to 1000 nM
NS(=O)(=O)N1CCC(Nc2ncc(C(F)(F)F)c(OC3CCCCCC3O)n2)CC1 (single isomer, unassigned) [Example 122b]	< 10 nM	10 to 100 nM		10 to 100 nM	10 to 100 nM
N#Cc1cnc(Nc2ccc(S(N)(=O)=O)cc2)nc1O[C@@H]1CCCC[C@@H]1O (single isomer, unassigned) [Example 2b, cis-4-((5-cyano-4-((2-hydroxycyclohexyl)oxy)pyrimidin-2-yl)amino)benzenesulfonamide]	10 to 100 nM			≥ 1000 nM	100 to 1000 nM
CC1(O)CCCC1Oc1nc(NC2CCN(S(=O)(=O)CC3CC3)CC2)ncc1C#N (single isomer, unassigned) [Example 38b]	10 to 100 nM			≥ 1000 nM	100 to 1000 nM
N#Cc1cnc(Nc2ccc(S(N)(=O)=O)cc2)nc1OC1CCCC(O)C1 (single isomer, unassigned) [Example 21b]	10 to 100 nM			100 to 1000 nM	100 to 1000 nM
CC(C)NS(=O)(=O)c1ccc(Nc2ncc(C#N)c(OC3CCCC3(C)O)n2)cc1 (single isomer, unassigned) [Example 35b]	< 10 nM			100 to 1000 nM	10 to 100 nM
CC(C)NS(=O)(=O)c1ccc(Nc2ncc(C#N)c(OC3CCC(O)C3)n2)cc1 (single isomer, unassigned) [Example 29b]	< 10 nM			100 to 1000 nM	10 to 100 nM
[2H]C([2H])([2H])NS(=O)(=O)c1ccc(Nc2ncc(C(F)(F)F)c(OC3CCOCCC3O)n2)cc1 (single isomer, unassigned) [Example 102d, 4-((4-((5-hydroxyoxepan-4-yl)oxy)-5-(trifluoromethyl)pyrimidin-2-yl)amino)-N-(methyl-d3)benzenesulfonamide]		≥ 1000 nM	100 to 1000 nM		100 to 1000 nM
N#Cc1cnc(Nc2ccc(S(N)(=O)=O)cc2)nc1OCC1CCCC1O (single isomer, unassigned) [Example 19a]	< 10 nM			100 to 1000 nM	10 to 100 nM
NS(=O)(=O)c1ccc(Nc2ncc(C(F)(F)F)c(OC3CCCCC3O)n2)cc1 (single isomer, unassigned) [Example 111a]	< 10 nM			100 to 1000 nM	100 to 1000 nM
Cc1cnc(Nc2ccc(S(=O)(=O)NC(C)C)cc2)nc1OC1CCCC1O (single isomer, unassigned) [Example 147b]	10 to 100 nM			100 to 1000 nM	100 to 1000 nM
NS(=O)(=O)N1CCC(Nc2ncc(C(F)(F)F)c(OC3CCCCCC3O)n2)CC1 (single isomer, unassigned) [Example 122a]	< 10 nM			100 to 1000 nM	100 to 1000 nM
CC(C)NS(=O)(=O)c1ccc(Nc2ncc(C#N)c(OC3CCCC3)n2)cc1 [Example 28]	< 10 nM			100 to 1000 nM	10 to 100 nM
N#Cc1cnc(Nc2ccc(S(N)(=O)=O)cc2)nc1N1CCCC1 [Example 67]	10 to 100 nM	≥ 1000 nM		100 to 1000 nM	100 to 1000 nM
[2H]C([2H])([2H])NS(=O)(=O)c1ccc(Nc2ncc(Br)c(OC3CCCC3O)n2)cc1 (single isomer, unassigned) [Example 143b]	< 10 nM			100 to 1000 nM	100 to 1000 nM
CC1(O)CCCC1Oc1nc(Nc2ccc(S(N)(=O)=O)cc2)ncc1C1CC1 (single isomer, unassigned) [Example 154b]	< 10 nM			100 to 1000 nM	10 to 100 nM
N#Cc1cnc(Nc2ccc(S(N)(=O)=O)cc2)nc1N1CCC[C@H](O)C1 [Example 69]	< 10 nM	100 to 1000 nM		100 to 1000 nM	10 to 100 nM
CNS(=O)(=O)N1CCC(Nc2ncc(C(F)(F)F)c(OC3CCCCCC3O)n2)CC1 (single isomer, unassigned) [Example 123a]	10 to 100 nM			100 to 1000 nM	100 to 1000 nM
[2H]C([2H])([2H])NS(=O)(=O)c1ccc(Nc2ncc(C(F)(F)F)c(OC3CCOCCC3O)n2)cc1 (single isomer, unassigned) [Example 102c, 4-((4-((5-hydroxyoxepan-4-yl)oxy)-5-(trifluoromethyl)pyrimidin-2-yl)amino)-N-(methyl-d3)benzenesulfonamide]		≥ 1000 nM	100 to 1000 nM		100 to 1000 nM
